Laboratory results: a compilation of properties of binary mixtures (doi:10.1016/j.jct.2020.106093)

Assay: xn = mol fraction of the nth substance listed
Details: 100.9 kPa

CC(=O)[O-].CC[NH2+]CC + O
Details	electrical conductivity [S/m]	speed of sound [m/s]	viscosity [mPa·s]
283.15 K, x1 = 0.015	–	–	2.07
283.15 K, x1 = 0.055	–	–	5.43
283.15 K, x1 = 0.119	–	–	15.42
283.15 K, x1 = 0.549	–	–	143.2
283.15 K, x1 = 0.714	–	–	161.6
285.65 K, x1 = 0.015	–	–	1.92
285.65 K, x1 = 0.055	–	–	4.91
285.65 K, x1 = 0.119	–	–	13.69
285.65 K, x1 = 0.168	–	–	24.1
285.65 K, x1 = 0.24	–	–	47.8
285.65 K, x1 = 0.351	–	–	79.3
285.65 K, x1 = 0.549	–	–	122.5
285.65 K, x1 = 0.714	–	–	138.5
288.15 K, x1 = 0.015	–	–	1.78
288.15 K, x1 = 0.055	–	–	4.46
288.15 K, x1 = 0.119	–	–	12.18
288.15 K, x1 = 0.168	–	–	21.1
288.15 K, x1 = 0.24	–	–	41.6
288.15 K, x1 = 0.351	–	–	68.3
288.15 K, x1 = 0.714	–	–	119
290.65 K, x1 = 0.015	–	–	1.65
290.65 K, x1 = 0.055	–	–	4.05
290.65 K, x1 = 0.119	–	–	10.87
290.65 K, x1 = 0.168	–	–	18.7
290.65 K, x1 = 0.24	–	–	36.3
290.65 K, x1 = 0.351	–	–	59
290.65 K, x1 = 0.549	–	–	90.6
290.65 K, x1 = 0.714	–	–	102.7
293.15 K, x1 = 0.015	–	1580	1.538
293.15 K, x1 = 0.055	–	1761	3.73
293.15 K, x1 = 0.119	–	1844	9.74
293.15 K, x1 = 0.168	–	1826	16.49
293.15 K, x1 = 0.24	–	1768	31.8
293.15 K, x1 = 0.35	–	1704	–
293.15 K, x1 = 0.351	–	–	51.2
293.15 K, x1 = 0.549	–	1597	78.4
293.15 K, x1 = 0.708	–	1554	–
293.15 K, x1 = 0.714	–	–	89.2
293.15 K, x1 = 0.835	–	1523	–
295.65 K, x1 = 0.015	–	–	1.437
295.65 K, x1 = 0.055	–	–	3.4
295.65 K, x1 = 0.119	–	–	8.75
295.65 K, x1 = 0.24	–	–	28
295.65 K, x1 = 0.351	–	–	44.7
295.65 K, x1 = 0.549	–	–	68.4
295.65 K, x1 = 0.714	–	–	77.8
298.15 K, x1 = 0.007	1.55	–	–
298.15 K, x1 = 0.015	2.35	1588	1.346
298.15 K, x1 = 0.054	3.1	–	–
298.15 K, x1 = 0.055	–	1756	3.12
298.15 K, x1 = 0.119	–	1832	7.91
298.15 K, x1 = 0.12	2.48	–	–
298.15 K, x1 = 0.168	1.73	1813	13.13
298.15 K, x1 = 0.24	0.98	1754	24.8
298.15 K, x1 = 0.351	–	–	39.3
298.15 K, x1 = 0.353	0.708	–	–
298.15 K, x1 = 0.549	–	1583	59.9
298.15 K, x1 = 0.55	0.365	–	–
298.15 K, x1 = 0.714	0.26	–	–
